≈ marks a conversion by molar mass, not a printed value.
How the values were obtained:
Assay type in all cases: functional
Details in all cases: time 16-20 hrs
Klebsiella pneumoniae = test: Antibacterial activity against Klebsiella pneumoniae ATCC 13883 incubated for 16 to 20 hrs by broth microdilution method
Staphylococcus aureus = test: Antibacterial activity against Staphylococcus aureus ATCC 25923 incubated for 16 to 20 hrs by broth microdilution method
Escherichia coli = test: Antibacterial activity against Escherichia coli ATCC 25922 incubated for 16 to 20 hrs by broth microdilution method
Cronobacter sakazakii = test: Antibacterial activity against Cronobacter sakazakii ATCC 29544 incubated for 16 to 20 hrs by broth microdilution method

Row | MIC (Klebsiella pneumoniae) | MIC (Staphylococcus aureus) | MIC (Escherichia coli) | MIC (Cronobacter sakazakii) | Structure (SMILES)
1 | 8 µg/mL (≈ 7.55 µM) | 1 µg/mL (≈ 0.944 µM) | 8 µg/mL (≈ 7.55 µM) | 8 µg/mL (≈ 7.55 µM) | CCCN(CCC)C[C@H]1/C=C(C)/C=C/C(=O)[C@H](C)C[C@H](CCN(Cc2ccc(Br)cc2)Cc2cn(-c3cnc4ccccc4c3)nn2)[C@H](O[C@@H]2O[C@H](C)[C@@H](O)[C@H](N(C)C)[C@H]2O)[C@@H](C)[C@H](O)CC(=O)O[C@@H]1CC
2 | 16 µg/mL (≈ 16.3 µM) | 2 µg/mL (≈ 2.04 µM) | 16 µg/mL (≈ 16.3 µM) | 16 µg/mL (≈ 16.3 µM) | CC[C@H]1OC(=O)C[C@@H](O)[C@H](C)[C@@H](O[C@@H]2O[C@H](C)[C@@H](O)[C@H](N(C)C)[C@H]2O)[C@@H](CCN(Cc2cn(-c3cnc4ccccc4c3)nn2)Cc2ccco2)C[C@@H](C)C(=O)/C=C/C(C)=C/[C@@H]1CN1CC(C)CC(C)C1 (some centres undefined)
3 | 16 µg/mL (≈ 15.7 µM) | 2 µg/mL (≈ 1.96 µM) | 16 µg/mL (≈ 15.7 µM) | 32 µg/mL (≈ 31.3 µM) | CC[C@H]1OC(=O)C[C@@H](O)[C@H](C)[C@@H](O[C@@H]2O[C@H](C)[C@@H](O)[C@H](N(C)C)[C@H]2O)[C@@H](CCN(Cc2ccc(OC)cc2)Cc2cn(-c3cnc4ccccc4c3)nn2)C[C@@H](C)C(=O)/C=C/C(C)=C/[C@@H]1CN1CC(C)CC(C)C1 (some centres undefined)
4 | 8 µg/mL (≈ 8.05 µM) | 0.5 µg/mL (≈ 0.503 µM) | 4 µg/mL (≈ 4.02 µM) | 16 µg/mL (≈ 16.1 µM) | CC[C@H]1OC(=O)C[C@@H](O)[C@H](C)[C@@H](O[C@@H]2O[C@H](C)[C@@H](O)[C@H](N(C)C)[C@H]2O)[C@@H](CCN(Cc2ccc(OC)cc2)Cc2cn(-c3cnc4ccccc4c3)nn2)C[C@@H](C)C(=O)/C=C/C(C)=C/[C@@H]1CN1CCCCC1
5 | 32 µg/mL (≈ 29.5 µM) | 4 µg/mL (≈ 3.68 µM) | 32 µg/mL (≈ 29.5 µM) | 16 µg/mL (≈ 14.7 µM) | CC[C@H]1OC(=O)C[C@@H](O)[C@H](C)[C@@H](O[C@@H]2O[C@H](C)[C@@H](O)[C@H](N(C)C)[C@H]2O)[C@@H](CCN(Cc2ccc(Br)cc2)Cc2cn(-c3cnc4ccccc4c3)nn2)C[C@@H](C)C(=O)/C=C/C(C)=C/[C@@H]1CI
6 | 32 µg/mL (≈ 33.5 µM) | 2 µg/mL (≈ 2.1 µM) | 32 µg/mL (≈ 33.5 µM) | 32 µg/mL (≈ 33.5 µM) | CC[C@H]1OC(=O)C[C@@H](O)[C@H](C)[C@@H](O[C@@H]2O[C@H](C)[C@@H](O)[C@H](N(C)C)[C@H]2O)[C@@H](CCN(Cc2ccc(NC(C)=O)cc2)Cc2cn(-c3cnc4ccccc4c3)nn2)C[C@@H](C)C(=O)/C=C/C(C)=C/[C@@H]1CO
7 | 8 µg/mL (≈ 8.75 µM) | 0.5 µg/mL (≈ 0.547 µM) | 4 µg/mL (≈ 4.38 µM) | 16 µg/mL (≈ 17.5 µM) | CC[C@H]1OC(=O)C[C@@H](O)[C@H](C)[C@@H](O[C@@H]2O[C@H](C)[C@@H](O)[C@H](N(C)C)[C@H]2O)[C@@H](CCN(Cc2cn(-c3cnc4ccccc4c3)nn2)Cc2ccco2)C[C@@H](C)C(=O)/C=C/C(C)=C/[C@@H]1CN(C)C
8 | 16 µg/mL (≈ 15.5 µM) | 0.5 µg/mL (≈ 0.483 µM) | 8 µg/mL (≈ 7.73 µM) | 32 µg/mL (≈ 30.9 µM) | CC[C@H]1OC(=O)C[C@@H](O)[C@H](C)[C@@H](O[C@@H]2O[C@H](C)[C@@H](O)[C@H](N(C)C)[C@H]2O)[C@@H](CCN(Cc2ccc(N(C)C)cc2)Cc2cn(-c3cnc4ccccc4c3)nn2)C[C@@H](C)C(=O)/C=C/C(C)=C/[C@@H]1CN1CCCCCCC1
9 | 4 µg/mL (≈ 3.82 µM) | 1 µg/mL (≈ 0.956 µM) | 4 µg/mL (≈ 3.82 µM) | 8 µg/mL (≈ 7.65 µM) | CC[C@H]1OC(=O)C[C@@H](O)[C@H](C)[C@@H](O[C@@H]2O[C@H](C)[C@@H](O)[C@H](N(C)C)[C@H]2O)[C@@H](CCN(Cc2ccc(C(F)(F)F)cc2)Cc2cn(-c3cnc4ccccc4c3)nn2)C[C@@H](C)C(=O)/C=C/C(C)=C/[C@@H]1CN1CCCCCC1
10 | 8 µg/mL (≈ 8.14 µM) | 0.5 µg/mL (≈ 0.509 µM) | 4 µg/mL (≈ 4.07 µM) | 16 µg/mL (≈ 16.3 µM) | CC[C@H]1OC(=O)C[C@@H](O)[C@H](C)[C@@H](O[C@@H]2O[C@H](C)[C@@H](O)[C@H](N(C)C)[C@H]2O)[C@@H](CCN(Cc2ccc(OC)cc2)Cc2cn(-c3cnc4ccccc4c3)nn2)C[C@@H](C)C(=O)/C=C/C(C)=C/[C@@H]1CN(CC)CC
11 | 16 µg/mL (≈ 15.6 µM) | 2 µg/mL (≈ 1.95 µM) | 16 µg/mL (≈ 15.6 µM) | 32 µg/mL (≈ 31.3 µM) | CC[C@H]1OC(=O)C[C@@H](O)[C@H](C)[C@@H](O[C@@H]2O[C@H](C)[C@@H](O)[C@H](N(C)C)[C@H]2O)[C@@H](CCN(Cc2ccc(N(C)C)cc2)Cc2cn(-c3cnc4ccccc4c3)nn2)C[C@@H](C)C(=O)/C=C/C(C)=C/[C@@H]1CN1CCC(O)CC1
